These molecules were tested against T1, Androgen Receptor (AR) (Homo sapiens, UniProt P10275, T878A) (assay: LNCaP Androgen Receptor Down-regulation Cell Assay (immunofluorescence end point)). Conditions: LNCaP prostate carcinoma cells, compound incubation 20-22 hours, 50% reduction of the AR signal; read-out: Androgen Receptor Down-regulation Assay (a) IC50/μM.
T1 construct: cell based immuno-fluorescence assay using the LNCaP prostate epithelial cell line; endogenous in cells; host or cells: LNCaP clone FGC (ATCC CRL-1740)
T1 sequence (P10275 1-920 T878A): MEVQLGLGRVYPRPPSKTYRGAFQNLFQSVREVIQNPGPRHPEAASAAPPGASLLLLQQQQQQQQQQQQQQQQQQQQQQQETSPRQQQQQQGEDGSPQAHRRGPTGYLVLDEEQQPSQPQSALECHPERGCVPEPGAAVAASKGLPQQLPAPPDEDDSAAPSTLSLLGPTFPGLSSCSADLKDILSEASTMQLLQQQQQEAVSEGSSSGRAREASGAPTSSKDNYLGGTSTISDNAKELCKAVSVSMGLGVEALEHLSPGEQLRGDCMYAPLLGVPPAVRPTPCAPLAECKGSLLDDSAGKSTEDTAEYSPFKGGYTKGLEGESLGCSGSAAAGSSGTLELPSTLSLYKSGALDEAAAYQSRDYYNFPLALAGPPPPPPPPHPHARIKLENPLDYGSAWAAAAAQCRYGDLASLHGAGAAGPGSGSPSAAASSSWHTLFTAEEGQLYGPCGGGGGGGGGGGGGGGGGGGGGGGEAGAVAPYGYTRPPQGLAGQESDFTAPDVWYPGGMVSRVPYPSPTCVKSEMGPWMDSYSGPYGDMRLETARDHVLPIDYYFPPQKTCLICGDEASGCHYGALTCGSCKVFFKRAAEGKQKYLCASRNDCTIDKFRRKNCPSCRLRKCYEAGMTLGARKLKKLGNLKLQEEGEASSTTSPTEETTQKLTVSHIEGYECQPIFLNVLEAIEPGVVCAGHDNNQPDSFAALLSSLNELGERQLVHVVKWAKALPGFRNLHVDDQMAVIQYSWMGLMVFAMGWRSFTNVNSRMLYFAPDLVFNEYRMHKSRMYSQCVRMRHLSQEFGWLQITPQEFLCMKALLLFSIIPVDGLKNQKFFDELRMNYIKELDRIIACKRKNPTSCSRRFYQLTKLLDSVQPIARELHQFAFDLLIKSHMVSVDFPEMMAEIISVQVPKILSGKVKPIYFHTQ
Type: cell-based
Method in brief: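 LNCaP cells in medium with 5% charcoal-stripped FBS were plated overnight, then treated with a compound dilution series for 20-22 h at 37° C. After fixation, permeabilisation and immunostaining, AR-associated green fluorescence was quantified by laser-scanning microplate cytometry; AR down-regulation expressed as IC50 from fitted dose-response curves.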
Molecule `Cn1cncc1CN1CCN(c2ccc3nnc(C(F)(F)F)n3n2)CC1` [Example 89, 6-[4-[(3-methylimidazol-4-yl)methyl]piperazin-1-yl]-3-(trifluoromethyl)-[1,2,4]triazolo[4,3-b]pyridazine] has a DC50 of 23 µM. `FC(F)(F)c1nnc2ccc(N3CCN(Cc4ccoc4)CC3)nn12` [Example 90, 6-[4-(furan-3-ylmethyl)piperazin-1-yl]-3-(trifluoromethyl)-[1,2,4]triazolo[4,3-b]pyridazine] showed a DC50 of 3.2 µM. `FC(F)(F)c1nnc2ccc(N3CCN(Cc4c[nH]c5ccccc45)CC3)nn12` [Example 94, 6-[4-(1H-indol-3-ylmethyl)piperazin-1-yl]-3-(trifluoromethyl)-[1,2,4]triazolo[4,3-b]pyridazine] gave a DC50 of 0.93 µM. `FC(F)(F)c1cccc(CN2CCN(c3ccc4nnc(C(F)(F)F)n4n3)CC2)c1` [Example 95, 3-(trifluoromethyl)-6-[4-[[3-(trifluoromethyl)phenyl]methyl]piperazin-1-yl]-[1,2,4]triazolo[4,3-b]pyridazine] showed a DC50 of 0.67 µM. Molecule `Fc1cccc(CN2CCN(c3ccc4nnc(C(F)(F)F)n4n3)CC2)c1` [Example 96, 6-[4-[(3-fluorophenyl)methyl]piperazin-1-yl]-3-(trifluoromethyl)-[1,2,4]triazolo[4,3-b]pyridazine] has a DC50 of over 1.3 µM. Work on `FC(F)(F)c1nnc2ccc(N3CCN(Cc4cccc(Cl)c4)CC3)nn12` [Example 97, 6-[4-[(3-chlorophenyl)methyl]piperazin-1-yl]-3-(trifluoromethyl)-[1,2,4]triazolo[4,3-b]pyridazine] yielded a DC50 of 0.36 µM. Molecule `Cc1cc(CN2CCN(c3ccc4nnc(C(F)(F)F)n4n3)CC2)oc1C` [Example 98, 6-[4-[(4,5-dimethylfuran-2-yl)methyl]piperazin-1-yl]-3-(trifluoromethyl)-[1,2,4]triazolo[4,3-b]pyridazine] has a DC50 of 2.3 µM. `FC(F)(F)c1nnc2ccc(N3CCN(CC4CCCCC4)CC3)nn12` [Example 99, 6-[4-(cyclohexylmethyl)piperazin-1-yl]-3-(trifluoromethyl)-[1,2,4]triazolo[4,3-b]pyridazine] gave a DC50 of 2.9 µM. `FC1(F)Oc2ccc(CN3CCN(c4ccc5nnc(C(F)(F)F)n5n4)CC3)cc2O1` [Example 100, 6-[4-[(2,2-difluoro-1,3-benzodioxol-5-yl)methyl]piperazin-1-yl]-3-(trifluoromethyl)-[1,2,4]triazolo[4,3-b]pyridazine] gave a DC50 of 1.8 µM. `FC(F)(F)c1nnc2ccc(N3CCN(Cc4cc5ccccc5[nH]4)CC3)nn12` [Example 101, 6-[4-(1H-indol-2-ylmethyl)piperazin-1-yl]-3-(trifluoromethyl)-[1,2,4]triazolo[4,3-b]pyridazine] showed a DC50 of 1.7 µM. In the case of `FC(F)(F)c1nnc2ccc(N3CCN(Cc4cccc5c4OCO5)CC3)nn12` [Example 102, 6-[4-(1,3-benzodioxol-4-ylmethyl)piperazin-1-yl]-3-(trifluoromethyl)-[1,2,4]triazolo[4,3-b]pyridazine], the DC50 was 2.9 µM. Molecule `FC(F)(F)c1nnc2ccc(N3CCN(Cc4cccc5nccnc45)CC3)nn12` [Example 103, 5-[[4-[3-(trifluoromethyl)[1,2,4]triazolo[4,3-b]pyridazin-6-yl]piperazin-1-yl]methyl]quinoxaline] has a DC50 of 6.2 µM. `FC(F)(F)c1nnc2ccc(N3CCN(Cc4cc[nH]c4)CC3)nn12` [Example 104, 6-[4-(1H-pyrrol-3-ylmethyl)piperazin-1-yl]-3-(trifluoromethyl)-[1,2,4]triazolo[4,3-b]pyridazine] gave a DC50 of 9.5 µM. In the case of `Cc1ccc(Oc2cccc(CN3CCN(c4ccc5nnc(C(F)(F)F)n5n4)CC3)c2)cc1` [Example 105, 6-[4-[[3-(4-methylphenoxy)phenyl]methyl]piperazin-1-yl]-3-(trifluoromethyl)-[1,2,4]triazolo[4,3-b]pyridazine], the DC50 was 3.2 µM. `CN(C)c1ccc(CN2CCN(c3ccc4nnc(C(F)(F)F)n4n3)CC2)cc1` [Example 106, N,N-dimethyl-4-[[4-[3-(trifluoromethyl)-[1,2,4]triazolo[4,3-b]pyridazin-6-yl]piperazin-1-yl]methyl]aniline] gave a DC50 of 4.4 µM. With `CC(=O)Nc1ccc(CN2CCN(c3ccc4nnc(C(F)(F)F)n4n3)CC2)cc1` [Example 107, N-[4-[[4-[3-(trifluoromethyl)-[1,2,4]triazolo[4,3-b]pyridazin-6-yl]piperazin-1-yl]methyl]phenyl]acetamide] the DC50 was 7.2 µM. `CCOc1ccc(CN2CCN(c3ccc4nnc(C(F)(F)F)n4n3)CC2)cc1` [Example 108, 6-[4-[(4-ethoxyphenyl)methyl]piperazin-1-yl]-3-(trifluoromethyl)-[1,2,4]triazolo[4,3-b]pyridazine] showed a DC50 of 2.3 µM. Work on `CCCCOc1ccc(CN2CCN(c3ccc4nnc(C(F)(F)F)n4n3)CC2)cc1` [Example 109, 6-[4-[(4-butoxyphenyl)methyl]piperazin-1-yl]-3-(trifluoromethyl)-[1,2,4]triazolo[4,3-b]pyridazine] yielded a DC50 of 7.2 µM. `O=[N+]([O-])c1ccc(CN2CCN(c3ccc4nnc(C(F)(F)F)n4n3)CC2)cc1` [Example 111, 6-[4-[(4-nitrophenyl)methyl]piperazin-1-yl]-3-(trifluoromethyl)-[1,2,4]triazolo[4,3-b]pyridazine] was tested, and the DC50 was 0.77 µM. Molecule `CN(C)CCCOc1ccc(CN2CCN(c3ccc4nnc(C(F)(F)F)n4n3)CC2)cc1` [Example 112, N,N-dimethyl-3-[4-[[4-[3-(trifluoromethyl)-[1,2,4]triazolo[4,3-b]pyridazin-6-yl]piperazin-1-yl]methyl]phenoxy]propan-1-amine] has a DC50 of 4.7 µM. Molecule `FC(F)(F)c1nnc2ccc(N3CCN(Cc4ccc(N5CCCC5)cc4)CC3)nn12` [Example 113, 6-[4-[(4-pyrrolidin-1-ylphenyl)methyl]piperazin-1-yl]-3-(trifluoromethyl)-[1,2,4]triazolo[4,3-b]pyridazine] has a DC50 of 7.1 µM. `CC(C)(C)Oc1ccc(CN2CCN(c3ccc4nnc(C(F)(F)F)n4n3)CC2)cc1` [Example 114, 6-[4-[[4-[(2-methylpropan-2-yl)oxy]phenyl]methyl]piperazin-1-yl]-3-(trifluoromethyl)-[1,2,4]triazolo[4,3-b]pyridazine] was tested, and the DC50 was 6.5 µM. Work on `CC(C)Oc1ccc(CN2CCN(c3ccc4nnc(C(F)(F)F)n4n3)CC2)cc1` [Example 115, 6-[4-[(4-propan-2-yloxyphenyl)methyl]piperazin-1-yl]-3-(trifluoromethyl)-[1,2,4]triazolo[4,3-b]pyridazine] yielded a DC50 of 2.5 µM. `FC(F)(F)Sc1cccc(CN2CCN(c3ccc4nnc(C(F)(F)F)n4n3)CC2)c1` [Example 116, 3-(trifluoromethyl)-6-[4-[[3-(trifluoromethylsulfanyl)phenyl]methyl]piperazin-1-yl]-[1,2,4]triazolo[4,3-b]pyridazine] was tested, and the DC50 was 1.1 µM. `FC(F)(F)c1nnc2ccc(N3CCN(Cc4ccc(-c5cccnc5)cc4)CC3)nn12` [Example 117, 6-[4-[(4-pyridin-3-ylphenyl)methyl]piperazin-1-yl]-3-(trifluoromethyl)-[1,2,4]triazolo[4,3-b]pyridazine] was tested, and the DC50 was 1.7 µM. `FC(F)(F)c1nnc2ccc(N3CCN(Cc4cccc(Br)c4)CC3)nn12` [Example 118, 6-[4-[(3-bromophenyl)methyl]piperazin-1-yl]-3-(trifluoromethyl)-[1,2,4]triazolo[4,3-b]pyridazine] gave a DC50 of 0.3 µM.

— patent US8003649B2 (AstraZeneca AB, priority 2007, dated 2011)
